Data published in paper PMC3626398, “Strategies Aimed at Nox4 Oxidase Inhibition Employing Peptides from Nox4 B-Loop and C-Terminus and p22^phox N-Terminus: An Elusive Target” (International Journal of Hypertension, 2013).

Legend:
Nox4 = assay: H2O2-generating activity of lysed COS-Nox4 cells (Amplex Red fluorescence); type: biochemical, human; conditions: for inhibition of H2O2 production (Nox4 activity): COS-Nox4 cell lysate preincubated with peptide 1 to 50 μM for 15 min at 24°C, mean of 3 experiments (Figure 1(f)); for effect on Nox4 activity (H2O2 production): COS-Nox4 cell lysate preincubated with various concentrations of C-terminal tail peptide for 15 min at 24°C, mean of 3 experiments (Figure 2(b)); for inhibition of Nox4 activity (Nox4-derived H2O2 production): COS-Nox4 cell lysate preincubated with various concentrations of p22phox N-terminal peptide for 15 min at 24°C, mean of 3 experiments (Figure 3(b),(c))
Procedure: Cell transfection was carried out using Lipofectamine LTX and Plus reagent (Invitrogen, Carlsbad, CA, USA), according to the manufacturer's instructions. COS-22 cells were transiently transfected with pcDNA3.1/Hygro-hNox4 (COS-Nox4 cells). Western blot experiments were performed to validate the expression of Nox4 as we reported previously. Twenty-four hours after transfection, cells were harvested by incubating with 0.05% trypsin/EDTA for 5 min at 37°C. Following addition of DMEM/10% FBS to neutralize the trypsin, the cells were pelleted by centrifugation at 1000 ×g for 5 min at 4°C and used for the experiments.
H2O2 production was quantified in lysed COS-Nox4 cells as described previously. […] COS-Nox4 and COS-22 cells were suspended to a concentration of 5 × 10^7 cells/mL in ice-cold disruption buffer (PBS containing 0.1 mM EDTA, 10% glycerol, protease inhibitor cocktail, and 0.1 mM PMSF). The cells were lysed by five freeze/thaw cycles and passed through a 30-gauge needle five times to further lyse the cells. Throughout all these procedures, extreme care was taken to maintain the lysate at a temperature close to 0°C. Incubation of COS-Nox4 cell lysate (10 μg/100 μL) with peptides was performed in assay buffer (25 mM Hepes, pH 7.4, containing 120 mM NaCl, 3 mM KCl, 1 mM MgCl2, 25 μM FAD, 0.1 mM Amplex Red, and 0.32 U/mL of HRP) for 15 or 60 min at room temperature on an orbital shaker (120 movements/min), before the addition of 36 μM NADPH, to initiate H2O2 production. […] Fluorescence measurements were made using a Biotek Synergy 4 Hybrid Multi-Mode Microplate Reader (excitation wavelength: 560 nm; emission wavelength: 590 nm). A standard curve of known H2O2 concentrations was developed using the Amplex Red assay (as per the manufacturer's instructions) and was used to quantify H2O2 production in lysed COS-Nox4 cells. The reaction was monitored at room temperature for 40 min. The emission increase was linear during this interval. The rate of H2O2 production was interpolated from the standard curve and is […] nmol H2O2/min/mg protein. The effect of a peptide on Nox4-derived H2O2 production was expressed as percent inhibition of Nox4, which was calculated by considering H2O2 production by control mixtures in the absence of peptide as 100%.

Nox2 = conditions: ref [8]; cited from earlier work
Description: With this in mind, in the current study, we tested whether application of a peptide mimic (B90–98) from the variable region of Nox4 B-loop interferes with the activity of Nox4. An important premise for this work was ...

B82–96: 15-mer peptide from the Nox4 B-loop, residues 82–96 (YLRGSQKVPSRRTRR; UniProt Q9NPH5 82-96, looked up, fragment)
inhibition of H2O2 production (Nox4 activity) (Nox4; Amplex Red): did not inhibit

C565–572: octameric Nox4 C-terminal tail peptide, residues 565–572 (SYGTRFEY; UniProt Q9NPH5 565-572, looked up, fragment)
effect on Nox4 activity (H2O2 production) (Nox4; Amplex Red): did not affect

c1ccc2c(c1)[I+]c1ccccc1-2 [DPI, diphenyleneiodonium chloride, reference compound]
inhibition of Nox4-dependent activity (rate of H2O2 generation) (Nox4; COS-Nox4 cell lysate, DPI 50 μM, 36 μM NADPH, Amplex Red/HRP, monitored at 24°C for 40 min, mean of 3 experiments): ~ 90%

C560–567: octameric Nox4 C-terminal tail peptide, residues 560–567 (SNQNNSYG; UniProt Q9NPH5 560-567, looked up, fragment)
effect on Nox4 activity (H2O2 production) (Nox4; Amplex Red): did not affect

PSRRTRELL [R96E mutant version of B90–98, R96E mutant version of B90–98 (…)]
inhibition of Nox4 activity (H2O2 production) (Nox4; COS-Nox4 cell lysate preincubated with peptide 0.3 to 30 μM for 15 min at 24°C, Amplex Red, mean of 3 experiments (Figure 1(e))): did not inhibit

WAMWAN [p22 WT 6–11]
inhibition of Nox4 activity (Nox4-derived H2O2 production) (Nox4; Amplex Red): did not inhibit

RAMRAN [p22 W6/9R, p22phox 6–11 peptide with tryptophans mutated to arginine (RAMRAN)]
inhibition of Nox4 activity (Nox4-derived H2O2 production) (Nox4; Amplex Red): did not inhibit

B77–91: 15-mer peptide from the Nox4 B-loop, residues 77–91 (RTLLAYLRGSQKVPS; UniProt Q9NPH5 77-91, looked up, fragment)
inhibition of H2O2 production (Nox4 activity) (Nox4; Amplex Red): did not inhibit

Nox2ds: peptide mimicking the B-loop region of Nox2 (amino acids 86–94), earlier work of the authors (CSTRVRRQL; UniProt P04839 86-94, looked up, fragment)
inhibition of Nox2-derived O2•− production (Nox2): selectively and potently inhibits

C570–578: nonameric Nox4 C-terminal tail peptide, residues 570–578 (FEYNKESFS; UniProt Q9NPH5 570-578, looked up, fragment)
effect on Nox4 activity (H2O2 production) (Nox4; Amplex Red): did not affect

B92–106: 15-mer peptide from the Nox4 B-loop, residues 92–106 (RRTRRLLDKSRTFHI; UniProt Q9NPH5 92-106, looked up, fragment)
inhibition of H2O2 production (Nox4 activity) (Nox4; Amplex Red): did not inhibit

B90–98: nonamer peptide mimic from the variable region of Nox4 B-loop, residues 90–98 (PSRRTRRLL; UniProt Q9NPH5 90-98, looked up, fragment)
inhibition of Nox4-derived H2O2 production (Nox4; COS-Nox4 cell lysate preincubated with peptide 0.1-100 μM for 15 min at 24°C, 36 μM NADPH, Amplex Red, mean of 3 experiments (Figure 1(d))): did not inhibit

C555–562: octameric Nox4 C-terminal tail peptide, residues 555–562 (TLHKLSNQ; UniProt Q9NPH5 555-562, looked up, fragment)
effect on Nox4 activity (H2O2 production) (Nox4; Amplex Red): did not affect
